Laboratory results reported in US9585380B2, “SSAT mRNA translation repression and activation” (TEMPLE UNIVERSITY—Of The Commonwealth System of Higher …, priority 2011, dated 2017).

Legend:
nucleolin = conditions: HEK293T exposed to 2 mM spermine for 12 hours versus controls
Procedure: In addition, a sample of RNA-interacting proteins obtained from a Sepharose-streptomycin-chimeric RNA column described above was subjected to the same 2DE separation. The sample was initially concentrated to 30 μL using a Nanosep 3000 (Pall Corp) and dialyzed with 0.1×PBS for 12 h using a Slide-A-Lyzer 7K mini unit (Pierce Biotech). After separation by 2DE, the proteins were transferred to a nitrocellulose membrane using a Mini Trans Blot System (Biorad) and were Western blotted using anti-nucleolin monoclonal antibody.

SSAT translation [1] = tested on: SSAT translation
SSAT translation [2] = assay: Reporter system: 5′ UTR lacking uORFs + SSAT coding sequence-luciferase chimeric construct in HEK293T cells; assay type: cell-based, human; conditions: wild-type SSAT-luciferase construct, luciferase 16 hours after addition, compared to untreated
Procedure: A chimeric construct (FIG. 15A) comprising a fragment of the 5′ UTR of SSAT lacking the uORF's (see FIG. 7), the SSAT coding sequence (see FIG. 8B), and the luciferase coding sequence was prepared. The SSAT coding sequence is linked in-frame to the luciferase coding sequence. The construct was prepared using appropriate primers and template nucleic acid, and conventional PCR methods. The construct was cloned into pLEX-MCS. To evaluate the effect of small molecules on translation of the chimeric construct, the chimeric construct was transiently transfected into HEK293T cells. The small molecule to be tested was added 24 hours after transfection of the vector. Luciferase activity was evaluated 16 hours after the addition of the small molecule using the ONE-Glo™ Luciferase Assay System (Promega, Madison, Wis.). The luminescence intensity was determined using a GloMax® luminometer (Promega).
In view of the discovery of the contribution of uORF's on translational repression of SSAT mRNA, a reporter system was developed to detect pharmacophores that can modulate SSAT translation. The reporter system is a chimeric construct comprising a 5′ UTR lacking the uORF's and the SSAT coding sequence linked in-frame to the luciferase coding sequence. (FIG. 15A). The 5′ UTR comprises 66 nucleotides of the native 5′UTR immediately upstream of the starting AUG codon.
Release of translational repression of the chimeric construct was tested in the presence of several small molecules. Release of translational repression was assessed by detection of luciferase activity. The small molecules tested were: DENSPM and three uncharacterized polyamine analogs designated polyamine analog 1; polyamine analog 2; and polyamine analog 3. Cisplatin and 5-FU were tested as negative controls.

SSAT translation [3] = assay: DENSPM dose response curve with mutant 6 chimeric construct; assay type: cell-based, human; conditions: mutant 6 construct, DENSPM 0.08 μM to 40 μM, HEK293T
Procedure: The chimeric construct to be tested was transiently transfected into HEK293T cells. Twenty-four hours after transfection of the vector, DENSPM was added to the desired final concentration (ranged from 0.08 micromolar to 40 micromolar). Luciferase activity was evaluated 16 hours after the addition of DENSPM using the ONE-Glo™ Luciferase Assay System. The luminescence intensity was determined using a GloMax® luminometer (Promega). The experiment was run in triplicates to obtain error bars and evaluate reproducibility.
A dose response experiment was performed using the mutant 6 chimeric construct. Specifically, the stimulation of mutant 6 translation by ten different concentrations of DENSPM was assayed. The DENSPM concentrations ranged from 0.08 micromolar (μM) to 40 μM. The dose response curve is depicted in FIG. 20.

Compound | 55 KDa nucleolin isoform (2D-PAGE Western blot) (nucleolin) | SSAT expression (Western blot) (SSAT translation [1]; constructs with or without uORFs, presence of spermine) | Repression of eGFP expression by the SSAT stem loop (Loop eGFP, Western blot) (SSAT translation [1]; exogenous spermine, HEK293T) | Release of translational repression of the chimeric construct (luciferase activity) (SSAT translation [2]) | Dose dependency of stimulation of translation of SSAT mRNA having CGC encoding Arg142 (SSAT translation [3])
NCCCNCCCCNCCCN [spermine] | absent | stimulated expression | partially reversed |  | 
CCNCCCNCCCNCCCNCC [DENSPM, N^1-N^11 diethylnorspermine] |  |  |  | relieved | dose dependency over at least two orders of magnitude
